In patent US10709724B2, “Methods of treating mitochondrial dysfunction” (Ecole Polytechnique Federale de Lausanne (EPFL), priority 2011, dated 2020):
“Also recorded” adds a separate entry of the source.

Legend:
[1] = tested on: C. elegans; assay: NAD measurement by HPLC in worms; type: in vivo; settings: day 4 of adulthood
Description: Worm Respiration Assays Oxygen consumption was measured using the Seahorse XF24 equipment (Seahorse Bioscience Inc., North Billerica, Mass.) as described in Yamamoto et al. Typically, 200 animals per conditions were recovered from NGM plates with M9 medium, washed three times in 2 mLM9 to eliminate residual bacteria, and resuspended in 500 μL M9 medium. Worms were transferred in 24-well standard Seahorse plates (#100777-004) (50 worms per well) and oxygen consumption was measured 6 times. Respiration rates were normalized to the number of worms in each individual well. NAD measurement by HPLC For NAD+ quantification, approximately 1000 worms were collected in M9 buffer, washed five times to remove residual bacteria and flash-frozen in liquid nitrogen and stored at −80° C. until analysis. Extraction was started by adding 250 μl of 1.6M perchloric acid on frozen samples, followed by extensive homogenization in a Qiagen tissuelyser, and centrifugation at 20.000 g for 15 min. The supernatant was recovered and neutralized with a 3M potassium carbonate solution. […]

[2] = tested on: C2C12 myotubes; assay: NR uptake in C2C12 myotubes; type: in vitro ADME
[3] = tested on: C2C12 myotubes; assay: Intracellular NAD+ content in C2C12 myotubes treated with PARP inhibitors; type: cell-based; parameters: intracellular NAD+ over time / H2O2-induced NAD+ depletion: dose or concentration left out as unconfirmed
Description: Cell Culture, Transfection, Adenoviral Infection and Mitochondrial Characterization. HEK293T, MEF and C2C12 cells were cultured in DMEM (4.5 g/l glucose, 10% FCS). PARP-1^+/+ and PARP-1^−/− MEFs were prepared as described in (Menissier-de Murcia et al., 1997). SIRT1 and MEFs were kindly provided by Fred Alt (Chea et al., 2005). SIRT3 MER were established according to standard techniques from conditional SERT3^−/− mice. (Picard, F., Gehin, M., Annicotte, J., Rocchi, S., Champy, M. F., O'Malley, B. W., Chambon, P., and Auwerx, J. (2002). SRC-1 and TIF2 control energy balance between white and brown adipose tissues. Cell 111, 931-941.) Deletion of the SIRT3 gene was induced via infection with adenovirus encoding for the Cre recombinase. HEK293T cells were transfected using JetPei reagent (Polyplus Transfections, Illkirch, France) according to the manufacturer's instructions. C2C12 cells were differentiated in DMEM (4.5 g/L glucose, 2% horse serum) after reaching confluency for 2 days, followed by 2 days of PJ34 treatment (10 μM). PARP-1 shRNA constructs were described in (Shah et al., 2005). Human PARP-1 and siRNAs were obtained from Dharmacon (Thermo Scientific). The adenovirus encoding for FLAG-HA-PGC-1α, control and SIRT1 shRNAs were a kind gift from Pere Puigserver and were used (MOI=100) in C2C12 myotubes as described (Canto et al., 2009). Mitochondrial charge determination was performed as described (Bai et al., 2001) and DNA strand breaks were quantified by TUNEL assays according to the manufacturer's instructions (Millipore).
NAD^+ NAM Determination. NAD^+ levels in cultured cells were determined using a commercial kit (Enzychrom™, BioAssays Systems, CA). For tissue samples NAD^+ and NAM levels were determined as described in (Sauve et al., 2005). In brief, to a weighed aliquot of frozen pulverized tissue we added as standards, ^18O-NAD^+ (typically 2.00 nmol) and ^18O-NAM (typically 2.00 nmol). 70 L of ice-cold 7% perchloric acid was then added and the sample was vortexed and sonicated three times, then centrifuged. Clear supernatant was removed and neutralized by additions of 3 M NaOH and 1 M phosphate buffer (pH=9), then centrifuged. Clear supernatant was injected onto HPLC C-18 column with 20 mM ammonium acetate eluent to separate NAD^+ and NAM from other cellular components, NAD^+ and NAM peaks (260 nm absorbance) were collected. Collections were lyophilized to dryness and subjected to MALDI-TOF analysis. For NAD^+ measurement, ratio of intensities for m/z=664 and 666 peaks, corresponding to ^16O- and ^18O-NAD^+ isotopomers, was multiplied by 2.00 nmol and then divided by tissue weight to determine NAD+ concentration in the sample. For NAM the ratio of intensities for m/z=123 and 125 peaks, corresponding to ^16O- and ^18O-NAM isotopomers, was multiplied by 2.00 nmol and then divided by tissue weight to determine NAM concentration in the sample. Corrections were applied for isotopic abundance. Other NAD metabolites were determined as previously described (Yang and Sauve, Synthesis of nictotinamide riboside and derivatives: effective agents for increasing nictinomide adenine dinucleotide concentrations in mammalian cells. J Med Chem 50, 6458-6461 (2006)).

| Km [2] | Structure (SMILES) | NAD+ levels in C. elegans [1] | Vmax of NR uptake [2] | intracellular NAD+ at 24 hrs, dose dependence ([3]; 24 hrs (FIG. 6F)) | intracellular NAD+ content ([3]; 24 hrs, 1 mM (FIG. 13B)) | intracellular NAD+ during H2O2 treatment ([3]; H2O2 500 μM, 6 hrs, PJ34 1 μM) | H2O2-induced NAD+ depletion ([3]; PJ34 24 hrs, H2O2 1 hr (FIG. 13B)) | intracellular NAD+ over time ([3]; PJ34 for the times indicated (FIG. 6D)) |
| --- | --- | --- | --- | --- | --- | --- | --- | --- |
| 172 ± 17.6 µM | NC(=O)c1ccc[n+]([C@@H]2O[C@H](CO)[C@@H](O)[C@H]2O)c1 [NR, nicotinamide riboside] | increased NAD+ levels; also recorded: increases | 204.2±20.5 pmol/mg of protein/min | – | – | – | – | – |
| – | CN(C)CC(=O)Nc1ccc2[nH]c(=O)c3ccccc3c2c1 [PJ34] | – | – | dose dependent manner | leads to increased intracellular content | prevented the decrease in intracellular NAD^+ | global inhibition of PARP activity with PJ34 did | gradual increase in NAD^+, becoming significant 24 hrs after the initiation of the treatment |
